Data: ChEMBL document CHEMBL1201862, “PubChem BioAssay data set” (2004)
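Where inhibition never reached the appropriate level, the endpoint shown equals the highest concentration tested. Otherwise, values were interpolated linearly from a five-concentration, 48-hour dose response in 96-well plates. GI50 = concentration required for 50% inhibition of growth.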 Active and inactive are the calls of the source. Rule as the data show it: active = GI50 up to about 1.1 µM and inactive = higher.

How the values were obtained:
Assay in all cases: DTP human tumour cell line panel, 48 h
SF-268 = test system: SF-268
OVCAR-4 = test system: OVCAR-4
K562 = test system: K562
SW-620 = test system: SW-620
HL-60 = test system: HL-60
CCRF-CEM = test system: CCRF-CEM
SK-MEL-2 = test system: SK-MEL-2
RPMI-8226 = test system: RPMI-8226
RXF 393 = test system: RXF 393
HOP-62 = test system: HOP-62
PC-3 = test system: PC-3
HOP-92 = test system: HOP-92
SF-539 = test system: SF-539
UO-31 = test system: UO-31
NCI-H23 = test system: NCI-H23
A549 = test system: A549
SK-MEL-28 = test system: SK-MEL-28
SNB-75 = test system: SNB-75
Malme-3M = test system: Malme-3M
TK-10 = test system: TK-10

Structure (SMILES) | GI50 (SF-268) | GI50 (OVCAR-4) | GI50 (K562) | GI50 (SW-620) | GI50 (HL-60) | GI50 (CCRF-CEM) | GI50 (SK-MEL-2) | GI50 (RPMI-8226) | GI50 (RXF 393) | GI50 (HOP-62) | GI50 (PC-3) | GI50 (HOP-92) | GI50 (SF-539) | GI50 (UO-31) | GI50 (NCI-H23) | GI50 (A549) | GI50 (SK-MEL-28) | GI50 (SNB-75) | GI50 (Malme-3M) | GI50 (TK-10)
CC(=O)CC[N+](C)(C)C | 44.3 µM (inactive) | 14.8 µM (inactive) | 3.21 µM (inactive) | 4.06 µM (inactive) | 4.42 µM (inactive) | 5.24 µM (inactive) | 36.4 µM (inactive) | 5.94 µM (inactive) | 12.9 µM (inactive) | > 100 µM (inactive) | 76.9 µM (inactive) | 10.7 µM (inactive) | 62.8 µM (inactive) | 42 µM (inactive) | 29.2 µM (inactive) | 83.4 µM (inactive) | 28.5 µM (inactive) | 29 µM (inactive) | 16.1 µM (inactive) | 27.6 µM (inactive)
CCOC(=O)c1c(Br)c(-c2ccc(OC)cc2)c(Br)n1C | 55.5 µM (inactive) | 47.1 µM (inactive) | 3.61 µM (inactive) | 9.46 µM (inactive) | 4.06 µM (inactive) | 16.3 µM (inactive) | 19.2 µM (inactive) | 17.7 µM (inactive) | 17.3 µM (inactive) | 11.8 µM (inactive) | 11.1 µM (inactive) | 8.17 µM (inactive) | 20.7 µM (inactive) | 12.2 µM (inactive) | 28 µM (inactive) | 21.3 µM (inactive) | 37.6 µM (inactive) | 1.94 µM (inactive) | 12.1 µM (inactive) | 20.7 µM (inactive)
CCC1([N+](=O)[O-])CC2C=CC1C2 (configuration not stated) | > 100 µM (inactive) | > 100 µM (inactive) | > 100 µM (inactive) | > 100 µM (inactive) | 49.9 µM (inactive) | > 100 µM (inactive) | > 100 µM (inactive) | > 100 µM (inactive) | > 100 µM (inactive) | > 100 µM (inactive) | > 100 µM (inactive) | 62.7 µM (inactive) | > 100 µM (inactive) | > 100 µM (inactive) | > 100 µM (inactive) | > 100 µM (inactive) | > 100 µM (inactive) | > 100 µM (inactive) | > 100 µM (inactive) | > 100 µM (inactive)
O=C(NCCCNCCNC(=O)c1cc(-c2ccccc2)nc2ccccc12)c1cc(-c2ccccc2)nc2ccccc12 | 2.1 µM (inactive) | 2.13 µM (inactive) | 1.94 µM (inactive) | 1.65 µM (inactive) | 1.59 µM (inactive) | 0.783 µM (active) | 2.24 µM (inactive) | 3.25 µM (inactive) | 2 µM (inactive) | 1.69 µM (inactive) | 1.68 µM (inactive) | 2.12 µM (inactive) | 1.82 µM (inactive) | 1.86 µM (inactive) |  | 1.73 µM (inactive) | 1.82 µM (inactive) | 1.51 µM (inactive) | 1.88 µM (inactive) | 1.66 µM (inactive)
CC(C)NC(=O)OCCN=C1c2ccccc2C(Br)C(Br)c2ccccc21 (configuration not stated) | 14.4 µM (inactive) | 6.93 µM (inactive) | 1.06 µM (active) | 3.76 µM (inactive) | 1.05 µM (active) | 0.46 µM (active) | 23.7 µM (inactive) | 7.83 µM (inactive) | 2.87 µM (inactive) | 14.5 µM (inactive) | 11.6 µM (inactive) | 5.3 µM (inactive) | 4.02 µM (inactive) | 4.21 µM (inactive) | 15.6 µM (inactive) | 24.7 µM (inactive) | 13.2 µM (inactive) | 8.04 µM (inactive) | 5.4 µM (inactive) | 5.87 µM (inactive)
NC1=CN(Cc2ccccc2)C2=N/C(=C\c3ccccc3)C(=O)N12 | > 100 µM (inactive) | 38.2 µM (inactive) | 48.8 µM (inactive) | > 100 µM (inactive) | 26.1 µM (inactive) | 50 µM (inactive) | > 100 µM (inactive) | 71.3 µM (inactive) | > 100 µM (inactive) | > 100 µM (inactive) | > 100 µM (inactive) | > 100 µM (inactive) | > 100 µM (inactive) | 65.9 µM (inactive) | > 100 µM (inactive) | > 100 µM (inactive) | > 100 µM (inactive) | > 100 µM (inactive) | > 100 µM (inactive) | > 100 µM (inactive)
C=CCc1cccc2cc(C(=O)NCc3ccccc3)c(=N)oc12 | 36.1 µM (inactive) | 41.4 µM (inactive) | > 100 µM (inactive) | 49.4 µM (inactive) | 25.3 µM (inactive) | 32.6 µM (inactive) | 12.1 µM (inactive) | 79.8 µM (inactive) | 46.3 µM (inactive) | 38.5 µM (inactive) | 18.6 µM (inactive) | 48.5 µM (inactive) | 47.5 µM (inactive) |  | 31.9 µM (inactive) | 40.1 µM (inactive) | 30.7 µM (inactive) | 31.3 µM (inactive) | 19.4 µM (inactive) | 
